Test results as given in ChEMBL document CHEMBL3046521, “Synthesis and antitumor activity of (4-hydroxyphenyl)[5-substituted alkyl/aryl)-2-thioxo-1,3,4-thiadiazol-3-yl]methanone and [(3,4-disubstituted)-1,3-thiazol-2ylidene]-4-hydroxybenzohydrazide” (2011).

What was measured:
Format in all cases: functional
KM12 = assay: Cytotoxicity against Homo sapiens (human) KM12 cells after 48 hr by sulforhodamine B assay; details: KM12, 48 h
HT-29 = assay: Cytotoxicity against Homo sapiens (human) HT-29 cells after 48 hr by sulforhodamine B assay; details: HT-29, 48 h
HCT-116 = assay: Cytotoxicity against Homo sapiens (human) HCT116 cells after 48 hr by sulforhodamine B assay; details: HCT-116, 48 h
HCT-15 = assay: Cytotoxicity against Homo sapiens (human) HCT15 cells after 48 hr by sulforhodamine B assay; details: HCT-15, 48 h
HCC 2998 = assay: Cytotoxicity against Homo sapiens (human) HCC2998 cells after 48 hr by sulforhodamine B assay; details: HCC 2998, 48 h
NCI-H226 = assay: Cytotoxicity against Homo sapiens (human) NCI-H226 cells after 48 hr by sulforhodamine B assay; details: NCI-H226, 48 h
HOP-62 = assay: Cytotoxicity against Homo sapiens (human) HOP62 cells after 48 hr by sulforhodamine B assay; details: HOP-62, 48 h
MOLT-4 = assay: Cytotoxicity against Homo sapiens (human) MOLT4 cells after 48 hr by sulforhodamine B assay; details: MOLT-4, 48 h
K562 = assay: Cytotoxicity against Homo sapiens (human) K562 cells after 48 hr by sulforhodamine B assay; details: K562, 48 h
CCRF-CEM = assay: Cytotoxicity against Homo sapiens (human) CCRF-CEM cells after 48 hr by sulforhodamine B assay
MDA-MB-468 = assay: Cytotoxicity against Homo sapiens (human) MDA-MB-468 cells after 48 hr by sulforhodamine B assay; details: MDA-MB-468, 48 h
Hs-578T = assay: Cytotoxicity against Homo sapiens (human) Hs 578T cells after 48 hr by sulforhodamine B assay
MCF7 = assay: Cytotoxicity against Homo sapiens (human) MCF7 cells after 48 hr by sulforhodamine B assay; details: MCF7, 48 h
MDA-MB-231 = assay: Cytotoxicity against Homo sapiens (human) MDA-MB-231 cells after 48 hr by sulforhodamine B assay; details: MDA-MB-231, 48 h
UO-31 = assay: Cytotoxicity against Homo sapiens (human) UO31 cells after 48 hr by sulforhodamine B assay; details: UO-31, 48 h
TK-10 = assay: Cytotoxicity against Homo sapiens (human) TK10 cells after 48 hr by sulforhodamine B assay; details: TK-10, 48 h
CAKI-1 = assay: Cytotoxicity against Homo sapiens (human) Caki1 cells after 48 hr by sulforhodamine B assay; details: CAKI-1, 48 h
ACHN = assay: Cytotoxicity against Homo sapiens (human) ACHN cells after 48 hr by sulforhodamine B assay
786-0 = assay: Cytotoxicity against Homo sapiens (human) 786-0 cells after 48 hr by sulforhodamine B assay; details: 786-0, 48 h
[1] = Cytotoxicity against Homo sapiens (human) NCI-ADR-RES cells after 48 hr by sulforhodamine B assay
SK-OV-3 = assay: Cytotoxicity against Homo sapiens (human) SKOV3 cells after 48 hr by sulforhodamine B assay; details: SK-OV-3, 48 h
OVCAR-8 = assay: Cytotoxicity against Homo sapiens (human) OVCAR8 cells after 48 hr by sulforhodamine B assay; details: OVCAR-8, 48 h
OVCAR-5 = assay: Cytotoxicity against Homo sapiens (human) OVCAR5 cells after 48 hr by sulforhodamine B assay; details: OVCAR-5, 48 h
OVCAR-3 = assay: Cytotoxicity against Homo sapiens (human) OVCAR3 cells after 48 hr by sulforhodamine B assay; details: OVCAR-3, 48 h
SK-MEL-28 = assay: Cytotoxicity against Homo sapiens (human) SK-MEL-28 cells after 48 hr by sulforhodamine B assay; details: SK-MEL-28, 48 h
SK-MEL-2 = assay: Cytotoxicity against Homo sapiens (human) SK-MEL-2 cells after 48 hr by sulforhodamine B assay; details: SK-MEL-2, 48 h
LOX IMVI = assay: Cytotoxicity against Homo sapiens (human) LOXIMVI cells after 48 hr by sulforhodamine B assay
SNB-19 = assay: Cytotoxicity against Homo sapiens (human) SNB19 cells after 48 hr by sulforhodamine B assay; details: SNB-19, 48 h
SF-295 = assay: Cytotoxicity against Homo sapiens (human) SF295 cells after 48 hr by sulforhodamine B assay; details: SF-295, 48 h
SF-539 = assay: Cytotoxicity against Homo sapiens (human) SF539 cells after 48 hr by sulforhodamine B assay; details: SF-539, 48 h
SF-268 = assay: Cytotoxicity against Homo sapiens (human) SF268 cells after 48 hr by sulforhodamine B assay; details: SF-268, 48 h

Question: Which GI50 (KM12) does the source give for `COc1ccc(-c2cs/c(=N\NC(=O)c3ccc(O)cc3)n2-c2ccc(OC)cc2OC)cc1` here?
Answer: 2.63 µM

Question: And the LC50 (KM12)?
Answer: 87.1 µM

Question: And the TGI (KM12; read-out: pTGI (converted))?
Answer: 8.51 µM

Question: And the GI50 (HT-29)?
Answer: 3.63 µM

Question: What about the LC50 (HT-29) of the same molecule?
Answer: > 100 µM

Question: What about the TGI (HT-29; read-out: pTGI (converted)) of the same molecule?
Answer: 17 µM

Question: What about the GI50 (HCT-116) of the same molecule?
Answer: 5.13 µM

Question: And the LC50 (HCT-116)?
Answer: > 100 µM

Question: And the TGI (HCT-116; read-out: pTGI (converted))?
Answer: 28.2 µM

Question: What about the GI50 (HCT-15) of the same molecule?
Answer: 3.55 µM

Question: And the LC50 (concentration killing 50% of cells) (HCT-15)?
Answer: > 100 µM

Question: What about the TGI (HCT-15; read-out: pTGI (converted)) of the same molecule?
Answer: > 100 µM

Question: And the GI50 (HCC 2998)?
Answer: 1.95 µM

Question: And the LC50 (HCC 2998)?
Answer: 53.7 µM

Question: What about the TGI (HCC 2998; read-out: pTGI (converted)) of the same molecule?
Answer: 5.25 µM

Question: What about the GI50 (NCI-H226) of the same molecule?
Answer: 4.27 µM

Question: What about the LC50 (NCI-H226) of the same molecule?
Answer: > 100 µM

Question: What about the TGI (NCI-H226; read-out: pTGI (converted)) of the same molecule?
Answer: > 100 µM

Question: And the GI50 (HOP-62)?
Answer: 2.95 µM

Question: And the LC50 (HOP-62)?
Answer: 49 µM

Question: What about the TGI (HOP-62; read-out: pTGI (converted)) of the same molecule?
Answer: 7.59 µM

Question: And the GI50 (MOLT-4)?
Answer: 1.2 µM

Question: And the LC50 (MOLT-4)?
Answer: > 100 µM

Question: And the TGI (MOLT-4; read-out: pTGI (converted))?
Answer: 23.4 µM

Question: And the GI50 (K562)?
Answer: 2.19 µM

Question: And the LC50 (K562)?
Answer: > 100 µM

Question: What about the TGI (K562; read-out: pTGI (converted)) of the same molecule?
Answer: > 100 µM

Question: And the GI50 (CCRF-CEM)?
Answer: 9.77 µM

Question: What about the LC50 (CCRF-CEM) of the same molecule?
Answer: > 100 µM

Question: And the TGI (CCRF-CEM; read-out: pTGI)?
Answer: > 100 µM

Question: What about the GI50 (MDA-MB-468) of the same molecule?
Answer: 3.89 µM

Question: And the LC50 (MDA-MB-468)?
Answer: > 100 µM

Question: What about the TGI (MDA-MB-468; read-out: pTGI (converted)) of the same molecule?
Answer: > 100 µM

Question: And the GI50 (Hs-578T)?
Answer: 6.92 µM

Question: What about the LC50 (Hs-578T) of the same molecule?
Answer: > 100 µM

Question: What about the TGI (Hs-578T; read-out: pTGI (converted)) of the same molecule?
Answer: 53.7 µM

Question: And the GI50 (MCF7)?
Answer: 3.72 µM

Question: And the LC50 (MCF7)?
Answer: > 100 µM

Question: And the TGI (MCF7; read-out: pTGI (converted))?
Answer: 28.8 µM

Question: What about the GI50 (MDA-MB-231) of the same molecule?
Answer: 3.16 µM

Question: What about the LC50 (MDA-MB-231) of the same molecule?
Answer: > 100 µM

Question: What about the TGI (MDA-MB-231; read-out: pTGI (converted)) of the same molecule?
Answer: 20 µM

Question: What about the GI50 (UO-31) of the same molecule?
Answer: 4.68 µM

Question: And the LC50 (UO-31)?
Answer: > 100 µM

Question: And the TGI (UO-31; read-out: pTGI)?
Answer: > 100 µM

Question: And the GI50 (TK-10)?
Answer: 13.5 µM

Question: What about the LC50 (TK-10) of the same molecule?
Answer: > 100 µM

Question: What about the TGI (TK-10; read-out: pTGI (converted)) of the same molecule?
Answer: 75.9 µM

Question: What about the GI50 (CAKI-1) of the same molecule?
Answer: 3.31 µM

Question: What about the LC50 (CAKI-1) of the same molecule?
Answer: > 100 µM

Question: What about the TGI (CAKI-1; read-out: pTGI (converted)) of the same molecule?
Answer: 52.5 µM

Question: And the GI50 (ACHN)?
Answer: 4.79 µM

Question: And the LC50 (ACHN)?
Answer: > 100 µM

Question: And the TGI (ACHN; read-out: pTGI (converted))?
Answer: > 100 µM

Question: What about the GI50 (786-0) of the same molecule?
Answer: 4.07 µM

Question: And the LC50 (786-0)?
Answer: > 100 µM

Question: And the TGI (786-0; read-out: pTGI (converted))?
Answer: 26.3 µM

Question: What about the GI50 [1] of the same molecule?
Answer: 2.95 µM

Question: What about the LC50 [1] of the same molecule?
Answer: > 100 µM

Question: And the TGI ([1]; read-out: pTGI (converted))?
Answer: 8.32 µM

Question: What about the GI50 (SK-OV-3) of the same molecule?
Answer: 15.1 µM

Question: What about the LC50 (SK-OV-3) of the same molecule?
Answer: > 100 µM

Question: What about the TGI (SK-OV-3; read-out: pTGI (converted)) of the same molecule?
Answer: 100 µM

Question: What about the GI50 (OVCAR-8) of the same molecule?
Answer: 10.2 µM

Question: And the LC50 (OVCAR-8)?
Answer: > 100 µM

Question: And the TGI (OVCAR-8; read-out: pTGI (converted))?
Answer: > 100 µM

Question: What about the GI50 (OVCAR-5) of the same molecule?
Answer: 6.92 µM

Question: And the LC50 (OVCAR-5)?
Answer: > 100 µM

Question: What about the TGI (OVCAR-5; read-out: pTGI (converted)) of the same molecule?
Answer: 38 µM

Question: What about the GI50 (OVCAR-3) of the same molecule?
Answer: 3.8 µM

Question: And the LC50 (OVCAR-3)?
Answer: 95.5 µM

Question: What about the TGI (OVCAR-3; read-out: pTGI (converted)) of the same molecule?
Answer: 17 µM

Question: And the GI50 (SK-MEL-28)?
Answer: 7.24 µM

Question: What about the LC50 (concentration killing 50% of cells) (SK-MEL-28) of the same molecule?
Answer: > 100 µM

Question: What about the TGI (SK-MEL-28; read-out: pTGI (converted)) of the same molecule?
Answer: 53.7 µM

Question: And the GI50 (SK-MEL-2)?
Answer: 4.9 µM

Question: And the LC50 (SK-MEL-2)?
Answer: > 100 µM

Question: What about the TGI (SK-MEL-2; read-out: pTGI (converted)) of the same molecule?
Answer: 72.4 µM

Question: And the GI50 (LOX IMVI)?
Answer: 3.8 µM

Question: What about the LC50 (LOX IMVI) of the same molecule?
Answer: 85.1 µM

Question: What about the TGI (LOX IMVI; read-out: pTGI (converted)) of the same molecule?
Answer: 15.8 µM

Question: And the GI50 (SNB-19)?
Answer: 10.7 µM

Question: And the LC50 (SNB-19)?
Answer: > 100 µM

Question: What about the TGI (SNB-19; read-out: pTGI (converted)) of the same molecule?
Answer: > 100 µM

Question: What about the GI50 (SF-295) of the same molecule?
Answer: 2.82 µM

Question: What about the LC50 (SF-295) of the same molecule?
Answer: > 100 µM

Question: And the TGI (SF-295; read-out: pTGI (converted))?
Answer: 9.77 µM

Question: What about the GI50 (SF-539) of the same molecule?
Answer: 5.13 µM

Question: And the LC50 (SF-539)?
Answer: 63.1 µM

Question: What about the TGI (SF-539; read-out: pTGI (converted)) of the same molecule?
Answer: 20.4 µM

Question: What about the GI50 (SF-268) of the same molecule?
Answer: 5.75 µM

Question: What about the LC50 (SF-268) of the same molecule?
Answer: > 100 µM

Question: What about the TGI (SF-268; read-out: pTGI (converted)) of the same molecule?
Answer: 60.3 µM
